Results from PMC9706563, “Development of Macrocyclic PRMT5–Adaptor Protein Interaction Inhibitors” (Journal of Medicinal Chemistry, 2022).
Like-named read-outs stand apart in the source and are kept apart here. Values belong to the compound of their own block, whether it stands above or below them. Square brackets hold non-standard residues; d marks the D form. Peptide text beside a SMILES is read from it. * marks the point of attachment. FITC = O=C1OC2(c3ccc(O)cc3Oc3cc(O)ccc32)c2ccc(NC(=S)*)cc21; hPhe = N[C@@H](CCc1ccccc1)C(=O)O; Cha = N[C@@H](CC1CCCCC1)C(=O)O; Nle = CCCC[C@H](N)C(=O)O; Nva = CCC[C@H](N)C(=O)O

Key:
TIM-MEP50 complex = molecular target: T1, TIM-MEP50 complex (Homo sapiens, UniProt O14744); experiment: Thermal shift assay (TSA); format: binding
T1 construct: made in house
Protocol: Thermal Shift Assays of peptides on the TIM-MEP50 complex were carried out in a 96-well PCR plate (LightCycler 480 Multiwell Plates 96, white, 04729692001). The purified protein complex was appropriately diluted in a buffer containing 50 mM HEPES (pH = 8.0), 250 mM NaCl, and 1 mM TCEP. All assay experiments used 5.36 μg of protein per well and […] 5000X Sypro Orange (Invitrogen) up to a total volume of 25 μL, with a resultant protein concentration of 3 μM and 5X SYPRO. Peptides were supplied at 10 mM concentration in DMSO. The PCR plates were sealed with an optical seal (LightCycler 480 Sealing Foil, 04729757001), shaken, and centrifuged after protein and compounds were added. Thermal scanning (25–95 °C at 1 °C/min) was performed using a real-time PCR setup (LightCycler 480 – Roche), and fluorescence intensity was measured after every temperature increment step. Analysis of the raw data was performed using internally developed software. Statistical validation of Tm shift relevance was performed using the Student’s t test (n = 6).

PRMT5-MEP50 [1] = molecular target: T2, PRMT5-MEP50 (Homo sapiens, UniProt O14744); experiment: Competitive binding FP assay, FITC-labeled 50 as tracer; settings: from competitive FP with tracer 50
T2 construct: The compounds were tested by means of FP with the full-length PRMT5-MEP50 complex; made in house
Protocol: The competitive binding assay was performed in a buffer of 50 mM HEPES, 250 mM NaCl, 1 mM TCEP, and 0.01% (v/v) Tween 20, 8.0 pH, in black, 384-well plates with a total volume of 10 μL per well. The FITC-labeled peptides or the Alexa 488-labeled pICln protein, at a final concentration of 1 nM, were mixed with PRMT5-MEP50 (at a final concentration of 194 nM when used with peptide 50, 600 nM with compound S1 [see Table S3] and 21, and 27 nM in the case of Alexa 488-labeled pICln), and the appropriate nonlabeled peptide or protein was titrated as two-fold dilution series. The plates were incubated at room temperature for up to 1 h 45 min and analyzed on a plate reader using 485 nm excitation and 535 nm emission wavelength. The experiment was performed in triplicate.

PRMT5-MEP50 + pICln = molecular target: T3, PRMT5-MEP50 + pICln (Homo sapiens, UniProt O14744); experiment: Competitive FP assay with Alexa 488-labeled full-length human pICln; format: binding
T3 construct: made in house
Protocol: To a solution of the full-length pICln protein (ca. 1 mg/mL) in 0.2 M bicarbonate buffer with 1 mM TCEP at pH 8.3 was added 10 mM Alexa […] in DMSO (8 equiv). The solution was kept on ice under dark conditions overnight. The protein was washed 8–10 times with a buffer intended for the fluorescence polarization assay (50 mM HEPES, 250 mM NaCl, 1 mM TCEP, 8.0 pH) using an Amicon Ultra-0.5 mL spin filter (Merck, Germany). Protein concentration was determined using the NanoDrop spectrophotometer.
The competitive binding assay was performed in a buffer of 50 mM HEPES, 250 mM NaCl, 1 mM TCEP, and 0.01% (v/v) Tween 20, 8.0 pH, in black, 384-well plates with a total volume of 10 μL per well. […] The plates were incubated at room temperature for up to 1 h 45 min and analyzed on a plate reader using 485 nm excitation and 535 nm emission wavelength. The experiment was performed in triplicate.

PRMT5-MEP50 complex = molecular target: T4, PRMT5-MEP50 complex (Homo sapiens, UniProt O14744); experiment: Pull-down with peptides immobilized on DBCO beads, MCF7 cell lysate; format: binding; settings: MCF7 cell lysate, DBCO beads, western blot
T4 construct: endogenous in cells; host or cells: MCF7
Protocol: DBCO agarose beads (300 μL; Jena Bioscience, Germany) were washed three times with PBS (600 μL, pH 7.4). To the beads suspended in PBS (600 μL) was added a 10 mM solution of azide-labeled peptide in DMSO or pure DMSO. The obtained suspensions were incubated overnight at 4 °C. The beads were washed with PBS three times for 10 min. MCF7 cells were harvested and lysed using Triton X100 lysis buffer (NaCl 150 mM, HEPES 25 mM, TCEP 1 mM, 1% Triton x100, 1% NP40 alternative, protease, and phosphatase inhibitor, pH 7.4). Empty beads, beads bound to an active peptide (55), or beads bound to a scrambled peptide (56) were added to the lysate (6 mg/mL) and rotated at 4 °C overnight. Beads attached to the active peptides were also incubated in the lysate containing a nonimmobilized/free active macrocycle (53 at 100 μM). Beads were collected by centrifugation (800g for 1 min) and washed three times for 10 min with PBS (500 μL). The beads were suspended in SDS-PAGE protein loading buffer (20 uL; […], 8% v/v glycerol, 2% SDS, […] (DTE), 0.02% bromophenol blue, pH 6.8), heated with shaking for 10 min at 95 °C, and centrifuged at 350 rpm. The obtained solutions were analyzed by western blotting using 10% acrylamide gels, and PVDF membranes and the relevant proteins were fluorescently detected using antibodies against PRMT5 and MEP50 and the corresponding secondary IRDye antibodies.

PRMT5-MEP50 [2] = molecular target: T2, PRMT5-MEP50; experiment: Direct binding fluorescence polarization (FP) assay of FITC-labeled peptides; settings: supplementary CSV, read-out: PRMT5-MEP50 Kd
Protocol: The assay was performed in a buffer of 50 mM 4-(2-hydroxyethyl)-1-piperazineethanesulfonic acid (HEPES), 250 mM NaCl, 1 mM tris(2-carboxyethyl)phosphine (TCEP), and 0.01% (v/v) Tween 20, pH 8.0, in black, 384-well plates with a total volume of 10 μL per well. […] The plates were incubated at room temperature for 1 to 2 h and analyzed on a plate reader using 485 nm excitation and 535 nm emission wavelength. The assay was performed in triplicate.

PRMT5-MEP50 [3] = molecular target: T2, PRMT5-MEP50; experiment: MTase-Glo methyltransferase activity assay; format: biochemical; settings: H4 histone tail peptide substrate
Protocol: The assay was performed in 1× reaction buffer of 20 mM Tris, 50 mM NaCl, 1 mM EDTA, 3 mM MgCl2, 0.1 mg/mL BSA, and 1 mM DTT at pH = 8.0 in white, 384-well plates. […] The plate was incubated at 20–21 °C for 1 h. MTase-Glo detection solution (5 μL) was added, and the plate was incubated at 20–21 °C for 1 h, followed by a luminescence measurement at a plate reader. The experiment was performed in triplicate.

[4] = Stability assay in cell lysate; format: in vitro ADME
Protocol: To the whole cell lysate prepared from U2OS cells with the freeze–thaw method was added the appropriate peptide, resulting in a mixture of 0.5 mg/mL protein and 600 μM peptide in PBS, and incubated at 37 °C. The samples were taken at 0, 15, 30 min, 1, 2, 4 h, 1, 3, and 7-days time points and mixed with an equal volume of ice-cold ethylparaben solution in MeOH (0.1 mg/mL), used as the internal standard. The samples were kept on ice for 15 min and centrifuged at 16,873 × g at 4 °C for 5 min. The obtained supernatant was then analyzed by HPLC, the peptide and the internal standard peaks at 210 nm were integrated, and the ratio of the peptide peak surface area to the internal standard was calculated. The experiment was conducted in duplicate.

T2 sequence (O14744 whole entry): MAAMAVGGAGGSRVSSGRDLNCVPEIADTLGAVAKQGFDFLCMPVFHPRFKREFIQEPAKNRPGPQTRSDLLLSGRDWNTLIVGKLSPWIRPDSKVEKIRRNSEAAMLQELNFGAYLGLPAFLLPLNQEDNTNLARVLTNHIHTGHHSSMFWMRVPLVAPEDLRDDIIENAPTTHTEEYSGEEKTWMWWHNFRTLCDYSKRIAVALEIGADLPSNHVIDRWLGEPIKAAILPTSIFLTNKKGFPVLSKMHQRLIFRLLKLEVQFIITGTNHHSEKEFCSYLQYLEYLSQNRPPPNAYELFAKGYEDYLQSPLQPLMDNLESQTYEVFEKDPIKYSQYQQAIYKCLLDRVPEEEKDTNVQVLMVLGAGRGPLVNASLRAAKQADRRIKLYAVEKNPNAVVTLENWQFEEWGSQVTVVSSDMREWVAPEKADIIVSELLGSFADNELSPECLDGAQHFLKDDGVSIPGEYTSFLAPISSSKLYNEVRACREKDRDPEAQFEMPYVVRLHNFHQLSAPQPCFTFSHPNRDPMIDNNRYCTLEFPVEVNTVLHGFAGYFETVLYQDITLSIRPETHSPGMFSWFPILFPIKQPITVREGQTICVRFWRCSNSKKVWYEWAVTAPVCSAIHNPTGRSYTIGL
T2 sequence (Q9BQA1 whole entry partner): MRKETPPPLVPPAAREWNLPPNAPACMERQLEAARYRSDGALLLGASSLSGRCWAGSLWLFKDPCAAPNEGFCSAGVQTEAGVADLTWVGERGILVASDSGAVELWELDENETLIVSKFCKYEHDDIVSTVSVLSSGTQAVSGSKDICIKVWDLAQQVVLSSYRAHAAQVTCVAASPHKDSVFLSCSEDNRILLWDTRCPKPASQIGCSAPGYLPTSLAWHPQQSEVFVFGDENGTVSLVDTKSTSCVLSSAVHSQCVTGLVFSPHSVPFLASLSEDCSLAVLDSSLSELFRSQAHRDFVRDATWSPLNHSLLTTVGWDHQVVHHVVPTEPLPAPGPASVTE
T3 sequence (O14744 whole entry): as the sequence (O14744 whole entry) above
T3 sequence (Q9BQA1 whole entry partner): as the sequence (Q9BQA1 whole entry partner) above
T4 sequence (O14744 whole entry): as the sequence (O14744 whole entry) above
T4 sequence (Q9BQA1 whole entry partner): as the sequence (Q9BQA1 whole entry partner) above
T1 sequence (O14744 13-292 limits assumed): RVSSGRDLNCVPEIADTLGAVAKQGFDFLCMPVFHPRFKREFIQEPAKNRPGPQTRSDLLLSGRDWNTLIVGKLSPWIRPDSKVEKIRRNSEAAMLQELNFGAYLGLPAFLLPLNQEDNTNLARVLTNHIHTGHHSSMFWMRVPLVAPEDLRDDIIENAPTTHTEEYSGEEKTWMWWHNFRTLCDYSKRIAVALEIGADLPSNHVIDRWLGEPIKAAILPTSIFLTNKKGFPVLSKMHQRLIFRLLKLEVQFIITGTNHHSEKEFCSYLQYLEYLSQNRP
T1 sequence (Q9BQA1 whole entry partner): as the sequence (Q9BQA1 whole entry partner) above

- increase of the average melting temperature (TIM-MEP50 complex; TSA, PRMT5 TIM barrel-MEP50 complex, n = 6): No stabilization
- TSA Average Tm (°C) (TIM-MEP50 complex; supplementary CSV): 49.32 ± 0.18 °C
- Ki (PRMT5-MEP50 [1]): n.b.
- PRMT5-MEP50 Ki (µM) (PRMT5-MEP50 [1]; supplementary CSV): nb
- IC50 (PRMT5-MEP50 + pICln; competition with Alexa 488-labeled pICln, 27 nM PRMT5-MEP50): did not compete
- PRMT5-MEP50 + pICln IC50 (µM) (PRMT5-MEP50 + pICln; competition with labeled pICln, supplementary CSV): nb
Compound: CC(=O)N1CCC[C@H]1C(=O)N[C@H](C(=O)N[C@@H]1CCCCC[C@@H](C(=O)N[C@@H](Cc2ccc([N+](=O)[O-])cc2)C(=O)N[C@@H](CC(C(=O)O)C(=O)O)C(=O)N[C@@H](CCC(N)=O)C(N)=O)NC(=O)[C@H](CC(=O)O)NC(=O)[C@H](C)NC1=O)C(C)C [Compound 54]

Compound: CC(=O)N[C@H](C(=O)N1CCC[C@H]1C(=O)N[C@@H]1CCCCC[C@@H](C(=O)N[C@@H](CC(=O)O)C(=O)N[C@@H](C)C(=O)N[C@@H](CC(C(=O)O)C(=O)O)C(=O)N[C@@H](CCCCNC(=O)COCCOCCOCCN=[N+]=[N-])C(N)=O)NC(=O)[C@H](Cc2ccc([N+](=O)[O-])cc2)NC(=O)[C@H](CCC(N)=O)NC1=O)C(C)C [Compound 55]
- enrichment of the PRMT5-MEP50 complex by immobilized peptide (PRMT5-MEP50 complex): successfully enriched the PRMT5-MEP50 complex

- enrichment of the PRMT5-MEP50 complex by immobilized peptide (PRMT5-MEP50 complex): did not show significant interaction
Compound: CC(=O)N1CCC[C@H]1C(=O)N[C@H](C(=O)N[C@@H]1CCCCC[C@@H](C(=O)N[C@@H](Cc2ccc([N+](=O)[O-])cc2)C(=O)N[C@@H](CC(C(=O)O)C(=O)O)C(=O)N[C@@H](CCC(N)=O)C(=O)N[C@@H](CCCCNC(=O)COCCOCCOCCN=[N+]=[N-])C(N)=O)NC(=O)[C@H](CC(=O)O)NC(=O)[C@H](C)NC1=O)C(C)C [Compound 56]

- Kd (PRMT5-MEP50 [2]): > 1000 nM
Compound: CCC[C@H](NC(=O)[C@H](CC(=O)O)NC(=O)[C@H](CC(=O)O)NC(=O)[C@H](Cc1ccccc1)NC(=O)[C@H](CCC(N)=O)NC(=O)CNC(=O)[C@@H]1CCCN1C(=O)[C@@H](NC(C)=O)C(C)C)C(=O)N[C@@H](CC(=O)O)C(=O)N[C@@H](CCCCNC(=S)Nc1ccc2c(c1)C(=O)OC21c2ccc(O)cc2Oc2cc(O)ccc21)C(N)=O [Compound S28] (Ac-VPGQFDD[Nva]DK(FITC)-NH2)

- Kd (PRMT5-MEP50 [2]): > 1000 nM
Compound: CCCC[C@H](NC(=O)[C@H](CC(=O)O)NC(=O)[C@H](CC(=O)O)NC(=O)[C@H](Cc1ccccc1)NC(=O)[C@H](CCC(N)=O)NC(=O)CNC(=O)[C@@H]1CCCN1C(=O)[C@@H](NC(C)=O)C(C)C)C(=O)N[C@@H](CC(=O)O)C(=O)N[C@@H](CCCCNC(=S)Nc1ccc2c(c1)C(=O)OC21c2ccc(O)cc2Oc2cc(O)ccc21)C(N)=O [Compound S29] (Ac-VPGQFDD[Nle]DK(FITC)-NH2)

- Kd (PRMT5-MEP50 [2]): > 1000 nM
Compound: CC(=O)N[C@H](C(=O)N1CCC[C@H]1C(=O)NCC(=O)N[C@@H](CCC(N)=O)C(=O)N[C@@H](Cc1ccccc1)C(=O)N[C@@H](CC(=O)O)C(=O)N[C@@H](CC(=O)O)C(=O)N[C@@H](CC1CCCCC1)C(=O)N[C@@H](CC(=O)O)C(=O)N[C@@H](CCCCNC(=S)Nc1ccc2c(c1)C(=O)OC21c2ccc(O)cc2Oc2cc(O)ccc21)C(N)=O)C(C)C [Compound S30] (Ac-VPGQFDD[Cha]DK(FITC)-NH2)

- Kd (PRMT5-MEP50 [2]): > 1000 nM
Compound: CC(=O)N[C@H](C(=O)N1CCC[C@H]1C(=O)NCC(=O)N[C@@H](CCC(N)=O)C(=O)N[C@@H](Cc1ccccc1)C(=O)N[C@@H](CC(=O)O)C(=O)N[C@@H](CC(=O)O)C(=O)N[C@@H](CO)C(=O)N[C@@H](CC(=O)O)C(=O)N[C@@H](CCCCNC(=S)Nc1ccc2c(c1)C(=O)OC21c2ccc(O)cc2Oc2cc(O)ccc21)C(N)=O)C(C)C [Compound S31] (Ac-VPGQFDDSDK(FITC)-NH2)

- Kd (PRMT5-MEP50 [2]): > 1000 nM
Compound: CC(=O)N[C@H](C(=O)N1CCC[C@H]1C(=O)NCC(=O)N[C@@H](CCC(N)=O)C(=O)N[C@@H](Cc1ccccc1)C(=O)N[C@@H](CC(=O)O)C(=O)N[C@@H](CC(=O)O)C(=O)N[C@@H](C)C(=O)N[C@@H](Cc1ccc(O)cc1)C(=O)N[C@@H](CCCCNC(=S)Nc1ccc2c(c1)C(=O)OC21c2ccc(O)cc2Oc2cc(O)ccc21)C(N)=O)C(C)C [Compound S32] (Ac-VPGQFDDAYK(FITC)-NH2)

- Kd (PRMT5-MEP50 [2]): > 1000 nM
Compound: CC(=O)N[C@H](C(=O)N1CCC[C@H]1C(=O)NCC(=O)N[C@@H](CCC(N)=O)C(=O)N[C@@H](Cc1ccccc1)C(=O)N[C@@H](CC(=O)O)C(=O)N[C@@H](CC(=O)O)C(=O)N[C@@H](C)C(=O)N[C@@H](Cc1c[nH]c2ccccc12)C(=O)N[C@@H](CCCCNC(=S)Nc1ccc2c(c1)C(=O)OC21c2ccc(O)cc2Oc2cc(O)ccc21)C(N)=O)C(C)C [Compound S33] (Ac-VPGQFDDAWK(FITC)-NH2)

- Kd (PRMT5-MEP50 [2]): > 1000 nM
Compound: CC(=O)N[C@H](C(=O)N1CCC[C@H]1C(=O)NCC(=O)N[C@@H](CCC(N)=O)C(=O)N[C@@H](Cc1ccccc1)C(=O)N[C@@H](CC(=O)O)C(=O)N[C@@H](CC(=O)O)C(=O)N[C@@H](C)C(=O)N[C@@H](CCc1ccccc1)C(=O)N[C@@H](CCCCNC(=S)Nc1ccc2c(c1)C(=O)OC21c2ccc(O)cc2Oc2cc(O)ccc21)C(N)=O)C(C)C [Compound S34] (Ac-VPGQFDDA[hPhe]K(FITC)-NH2)

- effect on direct methylation activity of PRMT5 (PRMT5-MEP50 [3]): is able to inhibit
Compound: O=C(NC[C@H](O)CN1CCc2ccccc2C1)c1cc(NC2COC2)ncn1 [EPZ015666, reference compound]

- half-life ([4]; U2OS cell lysate, 37 °C, 600 μM peptide): 4.4 h
- half-life ([4]; cells or culture medium, supplementary CSV, read-out: Half-llife in Lysate (converted)): 4.32 h
Compound: Ac-VPGQFDDAD-NH2 [Compound 31]
